Laboratory results as given in US10683269B2 (MISSION THERAPEUTICS LIMITED, priority 2016, dated 2020).
pIC50: −log10 of the molar value.

Biological target: T1, USP7 (Homo sapiens, UniProt Q93009)
T1 construct: The USP7 construct was PCR amplified and cloned into a pFLAG-CMV-6a vector (Sigma-Aldrich) with an N-terminal FLAG tag; made in house; host or cells: HEK293T
Assay: USP7 biochemical IC50 assay (fluorescence polarisation, TAMRA labelled peptide linked to ubiquitin via an iso-peptide bond)
Conditions: 30 min pre-incubation of enzyme and compound, read after 2 hr incubation at room temperature, read-out: IC50 range
In short: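 Fluorescence polarisation at 540 nm excitation/590 nm emission, read immediately and after 2 hr at room temperature, following addition of 50 nM TAMRA-labelled iso-peptide ubiquitin substrate.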

T1 sequence (Q93009 whole entry): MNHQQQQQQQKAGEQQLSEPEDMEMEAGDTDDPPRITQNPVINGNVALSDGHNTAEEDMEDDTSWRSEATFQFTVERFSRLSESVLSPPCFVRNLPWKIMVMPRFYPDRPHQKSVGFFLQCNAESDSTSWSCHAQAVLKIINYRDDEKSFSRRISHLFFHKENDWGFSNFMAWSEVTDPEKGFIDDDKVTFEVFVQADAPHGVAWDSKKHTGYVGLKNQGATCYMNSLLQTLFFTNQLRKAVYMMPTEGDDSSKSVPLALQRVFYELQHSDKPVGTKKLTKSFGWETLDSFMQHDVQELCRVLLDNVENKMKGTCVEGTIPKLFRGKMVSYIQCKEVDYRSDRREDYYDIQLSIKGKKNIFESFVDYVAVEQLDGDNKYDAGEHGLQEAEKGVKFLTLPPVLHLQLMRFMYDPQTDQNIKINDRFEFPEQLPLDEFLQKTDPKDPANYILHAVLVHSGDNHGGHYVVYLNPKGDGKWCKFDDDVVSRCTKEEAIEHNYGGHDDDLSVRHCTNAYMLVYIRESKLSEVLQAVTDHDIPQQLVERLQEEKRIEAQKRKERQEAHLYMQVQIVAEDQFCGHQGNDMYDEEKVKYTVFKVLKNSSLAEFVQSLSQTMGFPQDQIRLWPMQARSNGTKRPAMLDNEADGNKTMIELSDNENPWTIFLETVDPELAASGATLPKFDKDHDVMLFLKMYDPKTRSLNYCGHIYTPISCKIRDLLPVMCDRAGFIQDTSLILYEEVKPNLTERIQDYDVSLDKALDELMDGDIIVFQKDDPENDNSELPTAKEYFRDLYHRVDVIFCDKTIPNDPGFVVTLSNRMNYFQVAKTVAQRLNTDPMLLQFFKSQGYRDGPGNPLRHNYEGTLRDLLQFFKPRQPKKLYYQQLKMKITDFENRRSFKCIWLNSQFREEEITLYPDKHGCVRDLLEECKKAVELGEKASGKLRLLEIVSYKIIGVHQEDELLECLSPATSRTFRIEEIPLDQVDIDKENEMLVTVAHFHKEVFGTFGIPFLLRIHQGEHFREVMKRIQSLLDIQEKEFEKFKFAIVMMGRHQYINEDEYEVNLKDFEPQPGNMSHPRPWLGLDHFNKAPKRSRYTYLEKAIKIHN

| Compound | pIC50 |
| --- | --- |
| Cn1cc(C(=O)NCc2cc3c(c(-c4ccc(C#N)cc4)c2)CN(C#N)C3)cn1 [Example 221, N-((2-cyano-7-(4-cyanophenyl)isoindolin-5-yl)methyl)-1-methyl-1H-pyrazole-4-carboxamide] | > 6.00 |
| N#CN1Cc2cccc(-c3ccccc3S(N)(=O)=O)c2C1 [Example 161, 2-(2-cyanoisoindolin-4-yl)benzenesulfonamide] | 5.00 to 6.00 |
| COC(=O)Nc1cccc(C(=O)Nc2cccc3c2CN(C#N)C3)c1 [Example 89, methyl (3-((2-cyanoisoindolin-4-yl)carbamoyl)phenyl)carbamate] | 5.00 to 6.00 |
| N#CN1Cc2cccc(-c3ccccc3C(=O)N3CCCC3)c2C1 [Example 155, 4-(2-(pyrrolidine-1-carbonyl)phenyl)isoindoline-2-carbonitrile] | 4.52 to 5.00 |
| N#Cc1ccccc1-c1cc(C(N)=O)cc2c1CN(C#N)C2 [Example 241, 2-cyano-7-(2-cyanophenyl)isoindoline-5-carboxamide] | 5.00 to 6.00 |
| N#CN1Cc2ncnc(N3CCN(c4ccc(F)cc4F)CC3)c2C1 [Example 99, 4-(4-(2,4-difluorophenyl)piperazin-1-yl)-5H-pyrrolo[3,4-d]pyrimidine-6(7H)-carbonitrile] | 4.52 to 5.00 |
| N#Cc1cccc(-c2nc3c(c(N4CCc5ccccc5C4)n2)CN(C#N)C3)c1 [Example 141, 2-(3-cyanophenyl)-4-(3,4-dihydroisoquinolin-2(1H)-yl)-5,7-dihydro-6H-pyrrolo[3,4-d]pyrimidine-6-carbonitrile] | 5.00 to 6.00 |
| CN1CC(C(=O)Nc2cc3c(c(-c4ccc(C#N)cc4)c2)CN(C#N)C3)CCC1=O (stereo not drawn) [Example 266, N-(2-cyano-7-(4-cyanophenyl)isoindolin-5-yl)-1-methyl-6-oxopiperidine-3-carboxamide] | 5.00 to 6.00 |
| N#CN1Cc2cccc(-c3cnc4ccccc4c3)c2C1 [Example 8, 4-(quinolin-3-yl)isoindoline-2-carbonitrile] | 5.00 to 6.00 |
| Cn1nccc1CNc1nc2c(c(-c3ccccc3)n1)CN(C#N)C2 [Example 126, 2-(((1-methyl-1H-pyrazol-5-yl)methyl)amino)-4-phenyl-5,7-dihydro-6H-pyrrolo[3,4-d]pyrimidine-6-carbonitrile] | 5.00 to 6.00 |
| CC(=O)Nc1cc(-c2ccc(F)cc2)c2c(n1)CN(C#N)C2 [Example 249, N-(6-cyano-4-(4-fluorophenyl)-6,7-dihydro-5H-pyrrolo[3,4-b]pyridin-2-yl)acetamide] | 5.00 to 6.00 |
| CN(C)c1cc2c(c(-c3ccc(C#N)cc3)c1)CN(C#N)C2 [Example 270, 4-(4-cyanophenyl)-6-(dimethylamino)isoindoline-2-carbonitrile] | > 6.00 |
| CNC(=O)c1ccc2cnc(Nc3cccc4c3CN(C#N)C4)cc2c1 [Example 22] | 5.00 to 6.00 |
| N#CN1Cc2cccc(-c3ccccc3S(=O)(=O)N3CCC3)c2C1 [Example 178, 4-(2-(azetidin-1-ylsulfonyl)phenyl)isoindoline-2-carbonitrile] | 5.00 to 6.00 |
| N#CN1Cc2ncnc(N3CCC(Oc4cccnc4)CC3)c2C1 [Example 101, 4-(4-(pyridin-3-yloxy)piperidin-1-yl)-5,7-dihydro-6H-pyrrolo[3,4-c]pyrimidine-6-carbonitrile] | 4.52 to 5.00 |
| Cn1nccc1CNc1nc2c(c(N3CCc4ccccc4C3)n1)CN(C#N)C2 [Example 198, 4-(3,4-dihydroisoquinolin-2(1H)-yl)-2-(((1-methyl-1H-pyrazol-5-yl)methyl)amino)-5,7-dihydro-6H-pyrrolo[3,4-d]pyrimidine-6-carbonitrile] | 5.00 to 6.00 |
| COc1ccc(-c2nc(NCCO)nc3c2CN(C#N)C3)cc1 [Example 211, 2-((2-hydroxyethyl)amino)-4-(4-methoxyphenyl)-5,7-dihydro-6H-pyrrolo[3,4-d]pyrimidine-6-carbonitrile] | > 6.00 |

| Compound | pIC50 |
| --- | --- |
| N#CN1Cc2nc(NCCO)nc(N3CCc4ccccc4C3)c2C1 [Example 202, 4-(3,4-dihydroisoquinolin-2(1H)-yl)-2-((2-hydroxyethyl)amino)-5,7-dihydro-6H-pyrrolo[3,4-d]pyrimidine-6-carbonitrile] | 5.00 to 6.00 |
| N#Cc1ccc(-c2cc(CNC(=O)C3CCS(=O)(=O)CC3)cc3c2CN(C#N)C3)cc1 [Example 220, N-((2-cyano-7-(4-cyanophenyl)isoindolin-5-yl)methyl)tetrahydro-2H-thiopyran-4-carboxamide 1,1-dioxide] | 5.00 to 6.00 |
| CN1CCC[C@@H](C(=O)Nc2cc3c(c(-c4cccc(C#N)c4)c2)CN(C#N)C3)C1 [Example 27, (R)-N-(2-cyano-7-(3-cyanophenyl)isoindolin-5-yl)-1-methylpiperidine-3-carboxamide] | > 6.00 |
| N#Cc1ccc(-c2ccc(F)c3c2CN(C#N)C3)c(C(N)=O)c1 [Example 261, 5-cyano-2-(2-cyano-7-fluoroisoindolin-4-yl)benzamide] | 5.00 to 6.00 |
| N#CN1Cc2cccc(NC(=O)c3ccc(-c4cccnc4)cc3)c2C1 [Example 81, N-(2-cyanoisoindolin-4-yl)-4-(pyridin-3-yl)benzamide] | 5.00 to 6.00 |
| N#Cc1ccc(N2CCOC2=O)cc1-c1cccc2c1CN(C#N)C2 [Example 298, 4-(2-cyano-5-(2-oxooxazolidin-3-yl)phenyl)isoindoline-2-carbonitrile] | 5.00 to 6.00 |
| COc1ccc(C#N)c(-c2cccc3c2CN(C#N)C3)c1 [Example 172, 4-(2-cyano-5-methoxyphenyl)isoindoline-2-carbonitrile] | 5.00 to 6.00 |
| COCCn1cc(-c2nc3c(c(N4CCc5ccccc5C4)n2)CN(C#N)C3)cn1 [Example 146] | > 6.00 |
| N#Cc1ccc(-c2cc(CNC(=O)C3CCOCC3)cc3c2CN(C#N)C3)cc1 [Example 219, N-((2-cyano-7-(4-cyanophenyl)isoindolin-5-yl)methyl)tetrahydro-2H-pyran-4-carboxamide] | 5.00 to 6.00 |
| CC(=O)Nc1cccc(-c2nc(NCCO)nc3c2CN(C#N)C3)c1 [Example 210, N-(3-(6-cyano-2-((2-hydroxyethyl)amino)-6,7-dihydro-5H-pyrrolo[3,4-d]pyrimidin-4-yl)phenyl)acetamide] | 5.00 to 6.00 |
| N#CN1Cc2cc(NC(=O)C3CCNCC3)cc(-c3ccccc3)c2C1 [Example 63, N-(2-cyano-7-phenylisoindolin-5-yl)piperidine-4-carboxamide] | 5.00 to 6.00 |
| CN1CCOC(CNc2nc3c(c(-c4ccc(F)cc4)n2)CN(C#N)C3)C1 (stereo not drawn) [Example 194, 4-(4-fluorophenyl)-2-(((4-methylmorpholin-2-yl)methyl)amino)-5,7-dihydro-6H-pyrrolo[3,4-d]pyrimidine-6-carbonitrile] | 5.00 to 6.00 |
| N#CN1Cc2cccc(-c3cccc4c3C(=O)NC4)c2C1 [Example 68, 3-oxo-[4,4′-biisoindoline]-2′-carbonitrile] | 5.00 to 6.00 |
| Cn1cc(-c2cc3c(c(-c4ccccc4)c2)CN(C#N)C3)ccc1=O [Example 263, 6-(1-methyl-6-oxo-1,6-dihydropyridin-3-yl)-4-phenylisoindoline-2-carbonitrile] | 5.00 to 6.00 |
| CN1CCC[C@@H](C(=O)Nc2cc3c(c(-c4ccc(Cl)cc4)c2)CN(C#N)C3)C1 [Example 33, (R)-N-(7-(4-chlorophenyl)-2-cyanoisoindolin-5-yl)-1-methylpiperidine-3-carboxamide] | > 6.00 |
| N#CN1Cc2cc(NC(=O)C3CCS(=O)(=O)CC3)cc(-c3ccccc3)c2C1 [Example 51, N-(2-cyano-7-phenylisoindoin-5-yl)tetrahydro-2H-thiopyran-4-carboxamide 1,1-dioxide] | 5.00 to 6.00 |
